Source: patent US20210340629A1, “BIOMARKERS FOR CANCER THERAPY” (The Council of the Queensland Institute of Medical Research, priority 2018, published 2021)

Experiments:
MAP1LC3B [1] = assay: MAP1LC3B expression in excised D20 xenograft tumors (qRT-PCR, immunohistochemistry); type: in vivo, SCID mice; conditions: 5 mg/kg
Protocol: (§1) Quantitative RT-PCR and ChIP assays were conducted as previously described (Lee et al. (2010) Mol Cell 39, 71-85). Briefly, total RNA was isolated from either the tumor cells or from xenografts using Trizol (Invitrogen) and reverse transcription was performed from 2 μg of total RNA using the Superscript III cDNA synthesis system (Invitrogen). The abundance of mRNA was detected by an ABI VIIA7 system with SYBR Green Master Mix (Life Technologies). Primer pairs were designed to amplify 90-150 bp mRNA specific fragments and were confirmed as unique products by melting curve analysis. The quantity of mRNA was calculated using the ΔΔCt method and normalized to HPRT. All reactions were performed in triplicates.
Groups of 8 SCID mice per treatment group were used for xenograft studies to ensure adequate power to detect biological differences. All experiments were approved by the QIMR Berghofer Medical Research Institute Animal Ethics Committee. […] Tumor volumes (width2×length/2) were measured using a digital calliper, and presented as mean±SD. […]
Tumor sections were fixed in 4% paraformaldehyde. […] Aperio ImageScope software was used for imaging and quantitation of 5 non-overlapping tumor regions and evaluating the number of positive pixels per unit area in each region. Empty areas were manually excluded from quantification.
Quantitative RT-PCR was performed as described above.

LC3B = assay: EGFP-LC3B immunofluorescence analysis (punctate pattern); type: cell-based, human; conditions: D05 and C092 cell lines, 5 μM, 8 hours, data not shown
Protocol: Retroviral constructs expressing short hairpin RNA to G9a (shG9a) or a non-silencing control (shNS) were used as previously described (Casciello et al. (2017) Proc Natl Acad Sci USA 114, 7077-7082). pBABE-puro mCherry-EGFP-LC3B was obtained from Addgene (plasmid #22418) (N'Diaye et al. (2009) EMBO reports 10, 173-179). The viral supernatants were prepared by co-transfecting the constructs with pUMVC3 and pVSV-G into HEK293T cells using Superfect transfection reagent (Qiagen). The supernatants were harvested and used to infect cells in medium, which contained 8 μg/ml polybrene. Cell medium was replaced and fresh growth medium was added after 24 h. Cells were harvested 72 h later or selected using 1 μg/ml of Puromycin sulfate.
Stable cells expressing EGFP-LC3B construct were treated with DMSO, UNC0642 at 5 μM or 20 nM Bafilomycin A1 (Sigma Aldrich) for 8 hours. Images were taken with an EVOS FL auto fluorescent microscope (Invitrogen) and quantitated using ImageJ software.

MAP1LC3B [2] = assay: Quantitative real time PCR of MAP1LC3B expression in melanoma cell lines; type: cell-based, human; conditions: 24 hours
Protocol: as §1

MAP1LC3B promoter = assay: Chromatin immunoprecipitation (ChIP) on the MAP1LC3B promoter; type: cell-based, human; conditions: D05 cells, 5 μM, 24 h, FIG. 9
Protocol: In order to ascertain whether the inhibition of G9a directly impacts MAP1LC3B expression, chromatin immunoprecipitation (ChIP) was performed on the MAP1LC3B promoter. Changes in histone H3K9 dimethylation (H3K9me2) and acetylation (H3K9Ac), as well as the recruitment of RNA Pol II, were compared between vehicle or UNC0642 treated cells (FIG. 9). Consistent with the increase in gene expression observed in FIG. 8, there was a greater than 4-fold reduction in H3K9me2 concomitant with an increase in RNA Pol II recruitment at the MAP1LC3B promoter following UNC0642 treatment.
as §1

H3K9me2 = assay: Immunoblotting analysis of global H3K9me2; type: cell-based, human; conditions: D05 and C008 cell lines, as early as 8 hours and persisted to 24 hours, FIG. 3B
Protocol: For immunoblotting, protein whole cell lysates were prepared using RIPA lysis buffer containing 20 mM Tris, pH 8.0, 150 mM NaCl, 10% glycerol, 1% Nonidet P-40 containing protease inhibitor cocktail (Roche). Nuclear extracts were obtained using a standard high salt extraction buffer (20 mM HEPES (pH 7.9), 0.32 M NaCl, 1 mM EDTA, and 1 mM EGTA) supplemented with 1mM DU and protease inhibitor cocktail. Protein assays were performed according to the Bradford method using a protein assay kit (BioRad). […] of denatured proteins were separated using 10% sodium dodecyl sulfate-polyacrylamide gel electrophoresis (SDS-PAGE) and transferred to Polyvinylidene difluoride (PVDF) membranes. The membranes were blocked for 1 hour in 5% skim milk in Tris-buffered saline with Tween 20 (TBST; 10 mM Tris-HCl, 150 mM NaCl, 0.1% Tween 20). Immunoblotting was performed with primary anti G9a (#3306, Cell Signaling), H3K9me2 (ab 1220, Abcam), H3 (ab1791, Abcam) or Tubulin (ab6046, Abcam) and detected with either HRP-conjugated anti-rabbit (#7074, Cell Signaling Technology) or HRP-conjugated anti-mouse (#7076, Cell Signaling Technology). After applying ECL detection reagents (GE Healthcare), protein bands were visualized using X-ray film (Fujifilm).

## COc1cc2c(NC3CCN(C(C)C)CC3)nc(N3CCC(F)(F)CC3)nc2cc1OCCCN1CCCC1 [UNC0642]
MAP1LC3B [1]; compared to the vehicle treated group, P<0.01, FIG. 10C
  expression of the MAP1LC3B gene in tumors (quantitative real time PCR): statistically significant increase
MAP1LC3B [1]; compared to vehicle, FIG. 10D
  level of MAP1LC3B in the excised tumors (immunohistochemical analysis): significantly increased
LC3B
  distribution of EGFP-LC3B (punctate pattern): increase in punctate pattern
MAP1LC3B [2]; less sensitive cells (C006 and C092), no statistically significant difference to vehicle, FIG. 8
  induction of MAP1LC3B expression: minimal
MAP1LC3B [2]; very sensitive lines (D05 and C008), P<0.05, FIG. 8
  MAP1LC3B expression, induction compared to vehicle control: ~2 fold
MAP1LC3B promoter
  RNA Pol II recruitment at the MAP1LC3B promoter: increase
  reduction in H3K9me2 at the MAP1LC3B promoter: greater than 4 fold
H3K9me2
  global H3K9me2: reduction
